Ends that are not written are not given here. Peptide text beside a SMILES is read from it. * marks the point of attachment. Boc = CC(C)(C)OC(=O)*; OSu = O=C1CCC(=O)N1O*
Legend:
CCK-releasing cells = conditions: "is said to elicit"; assay of WO 01/41812; cited from earlier work
[1] = solubility in aqueous solutions; type: physicochemical; conditions: for CPS-Cys particularly in slightly acidic pH
Excerpt: (§1) Initial synthesis was of the 11-mer CPS peptide in which its C-terminal end was an N-hydroxysuccinimide (NHS) ester. This CPS-OSu peptide was expected to be highly reactive to the amine groups of human insulin and thus facilitate the conjugation reactions between CPS and Insulin. […] As a result, this CPS-OSu activated ester was cyclized via an internal amide bond. To overcome this side-reaction, a derivative of the CPS-OSu peptide in which all three amine groups of this peptide were protected by a Boc group (tert-Butyloxycarbonyl) was also made.
(§2) The 12-mer CPS-Cys peptide Sequence of CPS-Cys Peptide: K-L-K-L-A-L-A-L-A-L-A-C (Seq ID no. 2) was synthesized by conventional solid-phase peptide synthesis methodology. Standard synthesis protocols based on Fmoc chemistry were used. After synthesis, the crude peptides were cleaved from the solid support and purified by C18 reverse-phase HPLC eluted with acetonitrile aqueous buffers. The purified peptide was characterized by analytical HPLC analysis (FIG. 2, top panel) and mass spectrometry analysis (FIG. 2a, bottom panel, calculated MW=1227.6 Da and measured MW (MH+)=1227.9 Da).

stability of the peptide = type: physicochemical; conditions: CPS-OSu: reacts with its own amine groups, cyclized via internal amide bond
Excerpt: as §1, §2

| solubility in aqueous solutions [1] | stability of the peptide (stability of the peptide) | Compound | increase in CCK secretion (CCK-releasing cells) [%] |
| --- | --- | --- | --- |
| – | – | STFWAYQPDGDNDPTDYQKYEHTSSPSQLLAPGDYPCVIEV (listed as Homo sapiens) [Native LCRF, luminal cholecystokinin releasing factor] | ~300 |
| poor solubility | – | CC(C)C[C@H](NC(=O)[C@H](C)NC(=O)[C@H](CC(C)C)NC(=O)[C@H](CCCCNC(=O)OC(C)(C)C)NC(=O)[C@H](CC(C)C)NC(=O)[C@H](CCCCNC(=O)OC(C)(C)C)NC(=O)OC(C)(C)C)C(=O)N[C@@H](C)C(=O)N[C@@H](CC(C)C)C(=O)N[C@@H](C)C(=O)N[C@@H](CC(C)C)C(=O)N[C@@H](C)C(=O)ON1C(=O)CCC1=O [amine-protected peptide] (Boc-K(Boc)LK(Boc)LALALALA-OSu) | – |
| good solubility | stable | KLKLALALALAC [CPS-Cys peptide, K-L-K-L-A-L-A-L-A-L-A-C] | – |
